Source: US8063065B2, “Azaindazole compounds as CCR1 receptor antagonists” (Boehringer Ingelheim International GmbH, priority 2008, dated 2011)

target: T1, CCR1 (Homo sapiens, UniProt P32246); assay: Method B: calcium flux in CCR1 transfected cells (Calcium 4 dye, […] FDSS6000), block of the CCR1/MIP-1α interaction; format: cell-based; settings: Method B: Calcium 4 dye, MIP-1alpha at EC80
T1 sequence (P32246 1-355): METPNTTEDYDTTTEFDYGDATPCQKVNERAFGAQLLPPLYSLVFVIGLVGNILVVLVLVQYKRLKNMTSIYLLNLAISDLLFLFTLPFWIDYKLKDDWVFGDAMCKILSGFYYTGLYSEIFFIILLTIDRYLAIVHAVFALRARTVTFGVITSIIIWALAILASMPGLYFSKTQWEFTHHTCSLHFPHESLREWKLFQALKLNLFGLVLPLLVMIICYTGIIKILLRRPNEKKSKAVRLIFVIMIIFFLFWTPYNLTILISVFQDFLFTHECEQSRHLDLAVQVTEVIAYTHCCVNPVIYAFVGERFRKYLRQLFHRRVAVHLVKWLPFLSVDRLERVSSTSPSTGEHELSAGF
Method: Compounds are assessed for the ability to block the interaction of CCR1 and MIP-1α in a functional cellular assay measuring calcium flux in CCR1 transfected cells.
Method B: Non-adherent cells purchased from Chemicon Corporation (HTS005C), stably expressing recombinant CCR1 and G-alpha-16 are grown in RPMI 1640 medium (Mediatech 10-080-CM) supplemented with 10% FBS, 0.4 mg/mL Geneticin and penicillin/streptomycin. On the day of the assay, the cells are loaded with Calcium 4 dye (Molecular Devices R7448) with Probenecid (Invitrogen P346400) at 8E5 cells/mL for 1 hour at room temperature. After 1 hour, they are seeded in a 384-well tissue culture-treated plate at a density of 20,000 cells/well. Appropriately diluted test compound is added to the well to achieve a top concentration of 3,000 nM (diluted 4-fold with 10 doses total). The final concentration of DMSO is 1%. The buffer is HBSS (Invitrogen 14025) with 20 mM HEPES at pH 7.4. The cells incubate 30 minutes at 37 C and then 30 minutes at room temperature. The plates are transferred to the […] FDSS6000 where MIP-1alpha in 1% BSA is added at the EC80 final concentration. All plates must be read within 4 hours of the start of dye-loading. Wells+/−MIP-1alpha containing diluted DMSO instead of compound serve as the controls. Data are analyzed using Activity Base software.

Question: `CN(c1ncc(CNC(=O)c2cncc3c2cnn3-c2ccc(F)cc2)cn1)S(C)(=O)=O` [1-(4-Fluorophenyl)-1H-pyrazolo[3,4-c]pyridine-4-carboxylic acid [2-(methanesulfonyl-methyl-amino)-pyrimidin-5-ylmethyl]-amide] was tested. Which IC50 did it give?
Answer: 2 nM

Question: How did the IC50 turn out when `O=C(N[C@@H](CO)c1ccnc(Br)c1)c1cncc2c1cnn2-c1ccc(F)cc1` [1-(4-Fluorophenyl)-1H-pyrazolo[3,4-c]pyridine-4-carboxylic acid [(R)-1-(2-bromo-pyridin-4-yl)-2-hydroxy-ethyl]-amide] was run?
Answer: 2 nM

Question: With `COC[C@H](NC(=O)c1cncc2c1cnn2-c1ccc(F)cc1)c1ccnc(Br)c1` [1-(4-Fluorophenyl)-1H-pyrazolo[3,4-c]pyridine-4-carboxylic acid [(R)-1-(2-bromopyridin-4-yl)-2-methoxy-ethyl]-amide] as the compound, how does the IC50 read?
Answer: 0.5 nM

Question: How did the IC50 turn out when `COC[C@H](NC(=O)c1cncc2c1cnn2-c1ccc(F)cc1)c1ccnc(S(C)(=O)=O)c1` [1-(4-Fluorophenyl)-1H-pyrazolo[3,4-c]pyridine-4-carboxylic acid [(R)-1-(2-methanesulfonyl-pyridin-4-yl)-2-methoxy-ethyl]-amide] was run?
Answer: 1 nM

Question: For `CCC[C@@H](NC(=O)c1cncc2c1cnn2-c1ccc(F)cc1)c1ccc(OC)c(Br)c1` [1-(4-Fluorophenyl)-1H-pyrazolo[3,4-c]pyridine-4-carboxylic acid [(R)-1-(3-bromo-4-methoxy-phenyl)-butyl]-amide], which IC50 is on record?
Answer: 0.3 nM

Question: With `CC[C@@H](NC(=O)c1cncc2c1cnn2-c1ccc(F)cc1)c1ccc(OC)c(Br)c1` [1-(4-Fluorophenyl)-1H-pyrazolo[3,4-c]pyridine-4-carboxylic acid [(R)-1-(3-bromo-4-methoxy-phenyl)-propyl]-amide] as the compound, how does the IC50 read?
Answer: 0.2 nM

Question: Which IC50 does the source give for `CCC[C@@H](NC(=O)c1cncc2c1cnn2-c1ccc(F)cc1)c1ccc(OC)c(S(C)(=O)=O)c1` [1-(4-Fluorophenyl)-1H-pyrazolo[3,4-c]pyridine-4-carboxylic acid [(R)-1-(3-methanesulfonyl-4-methoxy-phenyl)-butyl]-amide] here?
Answer: 0.2 nM

Question: `CC[C@@H](NC(=O)c1cncc2c1cnn2-c1ccc(F)cc1)c1ccc(OC)c(S(C)(=O)=O)c1` [1-(4-Fluorophenyl)-1H-pyrazolo[3,4-c]pyridine-4-carboxylic acid [(R)-1-(3-methanesulfonyl-4-methoxy-phenyl)-propyl]-amide] was tested. Which IC50 did it give?
Answer: 0.2 nM

Question: For `CCC[C@@H](NC(=O)c1cncc2c1cnn2-c1ccc(F)cc1)c1ccc(O)c(S(C)(=O)=O)c1` [1-(4-Fluorophenyl)-1H-pyrazolo[3,4-c]pyridine-4-carboxylic acid [(R)-1-(4-hydroxy-3-methanesulfonyl-phenyl)-butyl]-amide], which IC50 is on record?
Answer: 0.2 nM

Question: For `CC[C@@H](NC(=O)c1cncc2c1cnn2-c1ccc(F)cc1)c1cc(S(C)(=O)=O)cn1C` [1-(4-Fluorophenyl)-1H-pyrazolo[3,4-c]pyridine-4-carboxylic acid [(R)-1-(4-methanesulfonyl-1-methyl-1H-pyrrol-2-yl)-propyl]-amide], which IC50 is on record?
Answer: 7 nM

Question: `CS(=O)(=O)c1cc([C@H](CO)NC(=O)c2cncc3c2cnn3-c2ccc(F)cc2)ccn1` [1-(4-Fluorophenyl)-1H-pyrazolo[3,4-c]pyridine-4-carboxylic acid [(R)-2-hydroxy-1-(2-methanesulfonyl-pyridin-4-yl)-ethyl]-amide] was tested. Which IC50 did it give?
Answer: 6 nM

Question: `CC[C@H](NC(=O)c1cncc2c1cnn2-c1ccc(F)cc1)c1ccn(S(C)(=O)=O)n1` [1-(4-Fluorophenyl)-1H-pyrazolo[3,4-c]pyridine-4-carboxylic acid [(S)-1-(1-methanesulfonyl-1H-pyrazol-3-yl)-propyl]-amide] was tested. Which IC50 did it give?
Answer: 3 nM

Question: `CC[C@H](NC(=O)c1cncc2c1cnn2-c1ccc(F)cc1)c1cnn(C)c1` [1-(4-Fluorophenyl)-1H-pyrazolo[3,4-c]pyridine-4-carboxylic acid [(S)-1-(1-methyl-1H-pyrazol-4-yl)-propyl]-amide] was tested. Which IC50 did it give?
Answer: 11 nM

Question: `CC[C@H](NC(=O)c1cncc2c1cnn2-c1ccc(F)cc1)c1cn[nH]c1` [1-(4-Fluorophenyl)-1H-pyrazolo[3,4-c]pyridine-4-carboxylic acid [(S)-1-(1H-pyrazol-4-yl)-propyl]-amide] was tested. Which IC50 did it give?
Answer: 36 nM

Question: Which IC50 does the source give for `C[C@H](NC(=O)c1cncc2c1cnn2-c1ccc(F)cc1)c1ccnc(Br)c1` [1-(4-Fluorophenyl)-1H-pyrazolo[3,4-c]pyridine-4-carboxylic acid [(S)-1-(2-bromopyridin-4-yl)-ethyl]-amide] here?
Answer: 0.4 nM

Question: How did the IC50 turn out when `CC[C@H](NC(=O)c1cncc2c1cnn2-c1ccc(F)cc1)c1ccnc(C(N)=O)c1` [1-(4-Fluorophenyl)-1H-pyrazolo[3,4-c]pyridine-4-carboxylic acid [(S)-1-(2-carbamoyl-pyridin-4-yl)-propyl]-amide] was run?
Answer: 1 nM

Question: Which IC50 does the source give for `CC[C@H](NC(=O)c1cncc2c1cnn2-c1ccc(F)cc1)c1cc(Cl)nc(S(C)(=O)=O)c1` [1-(4-Fluorophenyl)-1H-pyrazolo[3,4-c]pyridine-4-carboxylic acid [(S)-1-(2-chloro-6-methanesulfonyl-pyridin-4-yl)-propyl]-amide] here?
Answer: 0.3 nM

Question: `CC[C@H](NC(=O)c1cncc2c1cnn2-c1ccc(F)cc1)c1ccnc(Cl)c1` [1-(4-Fluorophenyl)-1H-pyrazolo[3,4-c]pyridine-4-carboxylic acid [(S)-1-(2-chloropyridin-4-yl)-propyl]-amide] was tested. Which IC50 did it give?
Answer: 0.2 nM

Question: `CC[C@H](NC(=O)c1cncc2c1cnn2-c1ccc(F)cc1)c1ccnc(C#N)c1` [1-(4-Fluorophenyl)-1H-pyrazolo[3,4-c]pyridine-4-carboxylic acid [(S)-1-(2-cyano-pyridin-4-yl)-propyl]-amide] was tested. Which IC50 did it give?
Answer: 0.3 nM

Question: `C[C@H](NC(=O)c1cncc2c1cnn2-c1ccc(F)cc1)c1cc(N(C)C)nc(S(C)(=O)=O)c1` [1-(4-Fluorophenyl)-1H-pyrazolo[3,4-c]pyridine-4-carboxylic acid [(S)-1-(2-dimethylamino-6-methanesulfonyl-pyridin-4-yl)-ethyl]-amide] was tested. Which IC50 did it give?
Answer: 0.2 nM

Question: For `CC[C@H](NC(=O)c1cncc2c1cnn2-c1ccc(F)cc1)c1cc(N(C)C)nc(S(C)(=O)=O)c1` [1-(4-Fluorophenyl)-1H-pyrazolo[3,4-c]pyridine-4-carboxylic acid [(S)-1-(2-dimethylamino-6-methanesulfonyl-pyridin-4-yl)-propyl]-amide], which IC50 is on record?
Answer: 0.2 nM

Question: `CCC[C@H](NC(=O)c1cncc2c1cnn2-c1ccc(F)cc1)c1ccnc(S(=O)(=O)CC)c1` [1-(4-Fluorophenyl)-1H-pyrazolo[3,4-c]pyridine-4-carboxylic acid [(S)-1-(2-ethanesulfonyl-pyridin-4-yl)-butyl]-amide] was tested. Which IC50 did it give?
Answer: 0.1 nM

Question: `CCS(=O)(=O)c1cc([C@H](C)NC(=O)c2cncc3c2cnn3-c2ccc(F)cc2)ccn1` [1-(4-Fluorophenyl)-1H-pyrazolo[3,4-c]pyridine-4-carboxylic acid [(S)-1-(2-ethanesulfonyl-pyridin-4-yl)-ethyl]-amide] was tested. Which IC50 did it give?
Answer: 2 nM

Question: How did the IC50 turn out when `CC[C@H](NC(=O)c1cncc2c1cnn2-c1ccc(F)cc1)c1ccnc(S(=O)(=O)CC)c1` [1-(4-Fluorophenyl)-1H-pyrazolo[3,4-c]pyridine-4-carboxylic acid [(S)-1-(2-ethanesulfonyl-pyridin-4-yl)-propyl]-amide] was run?
Answer: 0.2 nM

Question: With `CC[C@H](NC(=O)c1cncc2c1cnn2-c1ccc(F)cc1)c1ccnc(CO)c1` [1-(4-Fluorophenyl)-1H-pyrazolo[3,4-c]pyridine-4-carboxylic acid [(S)-1-(2-hydroxymethyl-pyridin-4-yl)-propyl]-amide] as the compound, how does the IC50 read?
Answer: 3 nM
